What was measured:
IR [1] = molecular target: IR (Homo sapiens, UniProt P06213); test: Insulin competition assay (FITC-insulin, flow cytometry); format: binding; parameters: expressed in transfected cells; host or cells: CHO (CHO-IR, gift from Dr. Nicholas Webster, UCSD); details: CHO-IR cells
Description: Cells were washed three times, acquired on a FACScan, and the mean channel fluorescence (MCF) of bell-shaped histograms was analyzed using the CellQuest program.
Cells were washed three times, acquired on a FACScan, and the mean channel fluorescence (MCF) of bell-shaped histograms was analyzed using the FlowJ program.

GST-IRTK = molecular target: T1, GST-IRTK (Homo sapiens, UniProt P06213); test: Partial proteolysis; format: binding; details: compound 50 μM or ATP-γ-S 5 μM; limited trypsin (or chymotrypsin) digestion
T1 construct: GST-tagged IRTK (GST-IRTK, a.a. 1011-1382); purchased Invitrogen
Description: 200 ng GST-IRTK was subjected to limited trypsin digestion in the presence or absence of 50 μM compound with 50 mM tris-HCL (pH8.2) and 20 mM CacCl2. The sample was separated on a SDS-polyacrylamide gel and stained by silver.
Several small molecules bind to the intracellular kinase domain of IR (IRTK) and provoke its activation. DDN might also interact with the IRTK to activate IR. To test this possibility, an UV-absorption spectra analysis was performed using recombinant IRTK. While the GST-tagged IRTK (GST-IRTK, a.a. 1011-1382) had no absorption from 200 nm to 800 nm, addition of DDN, but not its structural related analogue naptho[2,3-d]thiazole-4,9-dione-2-[(4-chlorophenyl)amino] […] Partial proteolysis analysis was also performed to confirm the DDN/IRTK interaction. Recombinant GST-tagged IRTK was incubated with either DMSO or DDN, followed by limited trypsin digestions. In DMSO treatment, GST-IRTK was digested into several smaller fragments of various molecular weights. […] Whereas a band of ˜37 kDa presented strongly in the ATP-γ-S incubated IRTK, a band of ˜30 kDa was found in the control samples but attenuated in the ATP-γ-S-treated sample.
To evaluate if 4524-E7 directly binds to the IR kinase domain, a partial proteolysis assay was performed with recombinant IRTK domain using trypsin or chymotrypsin, which was used before to characterize the interaction between IR and its small molecular ligand DAQ B1. Recombinant GST-tagged IRTK with either DMSO, 50 μM 4524-E7 or ATP-γ-S, were incubated and followed by limited trypsin or chymotrypsin digestion. Under DMSO treatment, GST-IRTK was quickly digested by both trypsin and chymotrypsin into several small fragments with various molecular weights (FIG. 10B). […] To test whether 4524-E7 selectively elevates IR kinase activities, an in vitro IR, IGFR, and EGFR kinase assays were performed using histone as the substrate.

IR [2] = molecular target: IR (Mus musculus, UniProt P15208); test: IR phosphorylation and downstream signaling in mouse tissues; format: in vivo; details: for IR and ERK phosphorylations in liver and muscle: 5 mg/kg oral, 1 and 2 h
Description: (A) DDN reduces blood glucose in C57BL/6J mice. […] Blood glucose was monitored before and after dosing at various time points as indicated (*: P<0.05, **: P<0.01; ***: P<0.001, n=10-13, Two-way ANOVA vs vehicle). (B) DDN provokes IR phosphorylation and its downstream signaling in C57BL/6J mice. Three month-old C57BL/6J mice were starved for 12 h and then orally administrated with vehicle (0.5% methylcellulose), DDN (20 mg/kg) or 2NH2-NQ (20 mg/kg). Cell lysates were prepared from liver and muscle tissues collected at 3, 4, and 5 h after drug administration and analyzed by immunoprecipitation and immunoblotting. (C) DDN quickly activates IR phosphorylation and its downstream signaling. Three-month-old C57BL/6J mice were starved for 12 h and then injected with vehicle, 5 mg/kg DDN or 5 mg/kg 2NH2-NQ through vena cava. After 5 min, the liver was collected and analyzed by immunobloting using specific antibodies.
Three-month-old mice were starved for 12 h and then orally administrated with vehicle (0.5% methylcellulose) or DDN (5 mg/kg). Cell lysates were prepared from liver and muscle tissues collected at 1 and 2 h after drug administration and analyzed by immunoprecipitation and immunoblotting. […] Three-month-old mice were starved for 12 h and then orally administrated with vehicle (0.5% methylcellulose) or DDN (5 mg/kg). Cell lysates were prepared from liver and muscle tissues collected at 1 and 2 h after drug administration and analyzed by immunoprecipitation and immunoblotting. (C) Hypoglycemic function of DDN in db/db mice. The animals were starved for 12 h and then orally injected with vehicle (0.5% methylcellulose) or DDN (5 mg/kg). […] Blood glucose was monitored before and after drug administration at 1-hour intervals (*: P<0.05, **: P<0.01, n=5, Two-way ANOVA vs vehicle). (D) DDN improves the glucose tolerance in ob/ob mice. The animals were starved for 12 h and then orally dosed with vehicle (0.5% methylcellulose) or DDN (5 mg/kg). […] A bonus of glucose (2 gm/kg) was injected intraperitoneally 1 hour later. Blood glucose was measured at 30-min intervals (*: P<0.05, **:P<0.01, n=5, Two-way ANOVA vs vehicle control).
(A) 4524-E7 provokes IR phosphorylation in various tissues of mice. Three-month-old C57BL/6J mice were starved for 12 h and then dosed with vehicle (0.5% methylcellulose) or 4524-E7 (20 mg/kg). Cell lysates from liver, muscle, and WAT were prepared at 3, 4, and 5 h after drug administration and analyzed by immunoblotting. (B) Basal and insulin-stimulated hepatic glucose production rates were measured by hyperinsulinemic-euglycemic clamp. […] (C) Hypoglycemic effect of 4524-E7 in C57BL/6J mice. C57BL/6J mice were starved for 12 h and then orally administrated with vehicle (0.5% methylcellulose) or 4524-E7 (5 mg/kg). Blood glucose was monitored at different time points as indicated (n=8, *: P<0.05, two-way ANOVA). (D) Hypoglycemic effect in db/db mice. db/db mice were starved for 12 h and then orally injected with vehicle (0.5% methylcellulose) or 4524-E7 (5 mg/kg). Blood glucose was monitored at different time points as indicated (n=5, *: P<0.05, two-way ANOVA). (E) Glucose tolerance test in ob/ob mice. The mice were starved for 12 hours and then orally administrated with vehicle or 4524-E7 (5 mg/kg). A bonus of glucose (2 gm/kg) was injected intraperitoneally 1 hour later. Blood glucose was then measured at 30 min intervals (n=13, *: P<0.05; **: P<0.01, two-way ANOVA).
After a 12 h fasting, C57BL/6J mice were orally administrated with 20 mg/kg of compound in 0.5% methylcellulose, and sacrificed at 3 h, 4 h and 5 h following compound administration. Fat tissues were dissected quickly and frozen on dry ice. Fat lysates were prepared and analyzed by Western blotting.

Chain of IR (Mus musculus, UniProt P15208) (P15208 28-1372): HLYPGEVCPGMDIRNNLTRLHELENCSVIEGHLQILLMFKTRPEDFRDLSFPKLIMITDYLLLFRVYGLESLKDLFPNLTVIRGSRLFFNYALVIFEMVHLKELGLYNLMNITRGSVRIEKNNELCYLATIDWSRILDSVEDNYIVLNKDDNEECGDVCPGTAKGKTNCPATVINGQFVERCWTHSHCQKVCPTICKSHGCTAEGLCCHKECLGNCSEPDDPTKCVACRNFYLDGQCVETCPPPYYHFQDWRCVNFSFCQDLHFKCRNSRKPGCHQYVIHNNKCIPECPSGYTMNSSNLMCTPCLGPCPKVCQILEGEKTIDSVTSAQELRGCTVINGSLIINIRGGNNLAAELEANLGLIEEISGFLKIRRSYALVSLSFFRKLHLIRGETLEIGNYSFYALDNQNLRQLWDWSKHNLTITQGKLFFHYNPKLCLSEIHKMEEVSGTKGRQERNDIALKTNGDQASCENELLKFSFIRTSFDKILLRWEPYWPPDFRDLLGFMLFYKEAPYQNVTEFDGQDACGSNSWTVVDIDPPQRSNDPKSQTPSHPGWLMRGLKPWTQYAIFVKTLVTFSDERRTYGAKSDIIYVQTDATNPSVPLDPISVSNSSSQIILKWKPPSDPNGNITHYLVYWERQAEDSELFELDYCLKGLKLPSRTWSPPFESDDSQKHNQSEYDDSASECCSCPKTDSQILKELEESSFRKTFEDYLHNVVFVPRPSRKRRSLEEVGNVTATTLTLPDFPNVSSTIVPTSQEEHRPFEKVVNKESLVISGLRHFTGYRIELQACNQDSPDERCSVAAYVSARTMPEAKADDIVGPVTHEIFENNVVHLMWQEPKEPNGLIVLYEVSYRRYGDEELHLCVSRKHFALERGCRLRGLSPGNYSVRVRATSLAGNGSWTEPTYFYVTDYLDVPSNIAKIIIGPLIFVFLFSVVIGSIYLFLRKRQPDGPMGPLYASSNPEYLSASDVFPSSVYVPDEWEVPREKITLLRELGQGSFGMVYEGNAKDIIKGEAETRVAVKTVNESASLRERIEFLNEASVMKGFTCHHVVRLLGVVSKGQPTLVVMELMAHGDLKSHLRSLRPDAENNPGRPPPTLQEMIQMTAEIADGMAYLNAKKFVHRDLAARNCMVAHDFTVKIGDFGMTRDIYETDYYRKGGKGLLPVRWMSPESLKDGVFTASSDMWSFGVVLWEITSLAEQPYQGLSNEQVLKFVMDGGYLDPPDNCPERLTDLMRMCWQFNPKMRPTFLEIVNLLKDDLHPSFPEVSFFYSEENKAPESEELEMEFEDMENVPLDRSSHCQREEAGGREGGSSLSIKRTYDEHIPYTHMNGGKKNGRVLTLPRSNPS
Chain of IR (Homo sapiens, UniProt P06213) (P06213 763-1382 limits assumed): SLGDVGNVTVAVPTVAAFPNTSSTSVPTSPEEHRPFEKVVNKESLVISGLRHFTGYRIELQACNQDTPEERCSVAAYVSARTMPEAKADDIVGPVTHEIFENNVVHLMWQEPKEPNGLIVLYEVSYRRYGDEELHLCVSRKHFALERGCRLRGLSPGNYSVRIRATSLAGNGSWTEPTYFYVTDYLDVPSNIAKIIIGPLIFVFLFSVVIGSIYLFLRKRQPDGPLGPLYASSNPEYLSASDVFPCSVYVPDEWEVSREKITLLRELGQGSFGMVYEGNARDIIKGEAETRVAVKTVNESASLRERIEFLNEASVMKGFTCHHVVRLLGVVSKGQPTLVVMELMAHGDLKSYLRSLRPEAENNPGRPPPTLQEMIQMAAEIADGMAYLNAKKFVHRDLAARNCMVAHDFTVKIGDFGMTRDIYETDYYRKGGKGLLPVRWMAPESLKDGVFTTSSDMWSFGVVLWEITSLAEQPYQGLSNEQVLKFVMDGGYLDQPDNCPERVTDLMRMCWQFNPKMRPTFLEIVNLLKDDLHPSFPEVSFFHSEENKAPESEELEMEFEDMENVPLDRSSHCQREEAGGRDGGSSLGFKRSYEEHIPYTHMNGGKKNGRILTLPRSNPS
Chain of IR (Homo sapiens, UniProt P06213) (P06213 28-758 limits assumed): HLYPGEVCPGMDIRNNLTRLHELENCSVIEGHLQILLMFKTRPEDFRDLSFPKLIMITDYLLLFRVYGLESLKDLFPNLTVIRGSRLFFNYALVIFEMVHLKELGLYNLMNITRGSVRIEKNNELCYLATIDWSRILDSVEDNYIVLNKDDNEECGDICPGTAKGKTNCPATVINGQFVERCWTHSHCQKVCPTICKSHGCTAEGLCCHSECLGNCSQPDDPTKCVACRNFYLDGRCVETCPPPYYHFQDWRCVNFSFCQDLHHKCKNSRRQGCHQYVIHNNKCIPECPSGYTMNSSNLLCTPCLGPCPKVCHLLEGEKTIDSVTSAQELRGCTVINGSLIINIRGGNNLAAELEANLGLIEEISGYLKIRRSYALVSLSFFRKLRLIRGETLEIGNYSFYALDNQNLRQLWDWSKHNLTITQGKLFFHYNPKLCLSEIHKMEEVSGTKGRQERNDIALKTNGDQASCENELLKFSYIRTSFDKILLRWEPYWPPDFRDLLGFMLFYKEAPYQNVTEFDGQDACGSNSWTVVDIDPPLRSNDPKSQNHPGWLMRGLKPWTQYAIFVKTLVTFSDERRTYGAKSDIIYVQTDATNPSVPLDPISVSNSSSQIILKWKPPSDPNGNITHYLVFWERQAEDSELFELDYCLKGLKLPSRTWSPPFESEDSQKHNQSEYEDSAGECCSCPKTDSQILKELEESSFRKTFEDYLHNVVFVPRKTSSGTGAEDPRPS
T1 sequence (P06213 1011-1382): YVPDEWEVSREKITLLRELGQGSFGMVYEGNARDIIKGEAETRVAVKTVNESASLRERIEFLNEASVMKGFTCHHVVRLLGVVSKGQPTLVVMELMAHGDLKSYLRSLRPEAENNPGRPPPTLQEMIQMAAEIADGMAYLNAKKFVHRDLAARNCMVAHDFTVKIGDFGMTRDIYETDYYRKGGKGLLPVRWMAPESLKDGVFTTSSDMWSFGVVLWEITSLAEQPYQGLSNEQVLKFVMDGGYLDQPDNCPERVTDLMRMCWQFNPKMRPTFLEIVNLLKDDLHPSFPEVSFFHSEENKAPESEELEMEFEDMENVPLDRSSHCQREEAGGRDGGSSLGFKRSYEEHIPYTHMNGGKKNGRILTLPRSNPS

Row | protection of IRTK from proteolysis (GST-IRTK) | IR, Akt and ERK activation in liver (IR [2]; C57BL/6J mice, 5 mg/kg through vena cava, after 5 min) | time until demonstrable IR activation in liver and muscle (IR [2]; C57BL/6J mice, 20 mg/kg oral gavage) [h] | IR and ERK phosphorylations in liver and muscle (IR [2]; db/db mice) | time until IR activation in liver and muscle (IR [2]; injected into blood stream through vena cava) [min] | IR and ERK phosphorylations in liver and muscle (IR [2]; ob/ob mice) | IR tyrosine phosphorylation in the liver, muscle and WAT (IR [2]; C57BL/6J mice, 20 mg/kg oral, 3 h after administration) | SMILES | competition with FITC-insulin for IR binding (shift of fluorescent peak) (IR [1]; 100 nM FITC-insulin, unlabelled insulin 5 μM) | IR and IRS-1 tyrosine phosphorylation in liver and muscle (IR [2]; C57BL/6J mice, 20 mg/kg oral) | competition with FITC-insulin for IR binding (shift of fluorescent peak) (IR [1]; 10 nM FITC-insulin, unlabelled insulin 1 μM)
1 | protected IRTK against trypsin digestion | quickly activated IR | 3 to 4 | enhanced IR and ERK phosphorylations | 5 | enhanced IR and ERK phosphorylations | – | CC(=O)Oc1ccc(OC(C)=O)c2c1C(=O)C(Cl)=C(Cl)C2=O [DDN, 5,8-diacetyloxy-2,3-dichloro-1,4-naphthoquinone] | No significant change of the shifted peak position | confirmed IRS-1 tyrosine phosphorylation in both tissues | –
2 | more intact IRTK was observed | – | – | – | – | – | all elevated | O=C1c2ccccc2C(=O)C2SC(Nc3ccc(Cl)cc3)=NC12 (centres unmarked) [4524-E7, 2-((4-chlorophenyl)amino)naphtho[2,3-d]thiazole-4,9(3aH,9aH)-dione] | – | – | no significant change of the shifted peak position
